Values after ≈ are worked out from the molar mass of the structure shown. Each block holds one compound with its values, some of them ahead of it.
Experiments:
[1] = molecular target: T1, Alr (Staphylococcus aureus, UniProt Q6GF03); assay: Inhibitor reversibility: pre-incubation and dialysis; assay type: biochemical; details: pre-incubated 30 minutes, dialyzed for 16 hours
[2] = tested on: Staphylococcus aureus PCI 124; assay: S. aureus MIC, broth microdilution; details: PCI124
[3] = tested on: Staphylococcus aureus HFH-29568; assay: S. aureus MIC, broth microdilution; details: HFH29568
[4] = molecular target: T1, Alr; assay: Inhibitor reversibility: IC50 after pre-incubation with the enzyme; assay type: biochemical; details: pre-incubation 30 minutes vs 6 hours (16 hours)
[5] = tested on: Staphylococcus aureus HFH-30522; assay: S. aureus MIC, broth microdilution; details: HFH30522
[6] = tested on: S. aureus USA300-alr (Alr overexpressing); assay: MIC in wild type and Alr overexpressing strains; details: Staphylococcus aureus
[7] = tested on: S. aureus N315-alr (Alr overexpressing); assay: MIC in wild type and Alr overexpressing strains; details: Staphylococcus aureus
[8] = tested on: S. aureus N315; assay: MIC in wild type and Alr overexpressing strains; details: Staphylococcus aureus
[9] = tested on: Staphylococcus aureus FDA 209; assay: S. aureus MIC, broth microdilution; details: FDA209
[10] = tested on: Staphylococcus aureus 328; assay: S. aureus MIC, broth microdilution
[11] = tested on: Staphylococcus aureus PCI 1158; assay: S. aureus MIC, broth microdilution; details: PCI1158
[12] = tested on: Staphylococcus aureus HFH-30364; assay: S. aureus MIC, broth microdilution; details: HFH30364
[13] = tested on: Staphylococcus aureus HFH-30032; assay: S. aureus MIC, broth microdilution; details: HFH30032
[14] = tested on: S. aureus USA 300; assay: MIC in wild type and Alr overexpressing strains; details: Staphylococcus aureus, USA300
[15] = tested on: Candida albicans 2000; assay: Antimicrobial activity spectrum MIC; assay type: cell-based
[16] = tested on: Aspergillus niger 624; assay: Antimicrobial activity spectrum MIC; assay type: cell-based
[17] = tested on: Staphylococcus epidermidis 831; assay: Antimicrobial activity spectrum MIC; assay type: cell-based
[18] = tested on: Streptococcus pneumoniae 1195; assay: Antimicrobial activity spectrum MIC; assay type: cell-based
[19] = tested on: Enterococcus faecium 800; assay: Antimicrobial activity spectrum MIC; assay type: cell-based
[20] = tested on: Streptococcus pyogenes 712; assay: Antimicrobial activity spectrum MIC; assay type: cell-based
[21] = tested on: Pseudomonas aeruginosa 1380; assay: Antimicrobial activity spectrum MIC; assay type: cell-based
[22] = tested on: Proteus mirabilis 1360; assay: Antimicrobial activity spectrum MIC; assay type: cell-based
[23] = tested on: Klebsiella pneumoniae 1339; assay: Antimicrobial activity spectrum MIC; assay type: cell-based
[24] = tested on: Enterococcus faecalis 101; assay: Antimicrobial activity spectrum MIC; assay type: cell-based
[25] = tested on: Escherichia coli 120 (acrAB efflux pump deletion); assay: microbe, parasite or virus in culture; assay type: cell-based
[26] = tested on: Escherichia coli 102; assay: Antimicrobial activity spectrum MIC; assay type: cell-based

Structure (SMILES): CCC(=O)[O-].[Na+] [sodium propionate]
recovery of Alr activity after dialysis [1]: recovery of Alr activity

Structure (SMILES): N[C@@H]1CON=C1O [DCS, D-cycloserine]
MIC [2]: 12.5 µg/mL (≈ 122 µM)
MIC [3]: 12.5 µg/mL (≈ 122 µM)
change of IC50 values with longer pre-incubation time [4]: a significant reduction in the IC50 values occurs with longer pre-incubation time
MIC [5]: 12.5 µg/mL (≈ 122 µM)
MIC [6]: 25 µg/mL (≈ 245 µM)
MIC [7]: 25 µg/mL (≈ 245 µM)
MIC [8]: 25 µg/mL (≈ 245 µM)
MIC [9]: 12.5 µg/mL (≈ 122 µM)
MIC [10]: 12.5 µg/mL (≈ 122 µM)
recovery of Alr activity after dialysis [1]: no increase in activity
MIC [11]: 12.5 µg/mL (≈ 122 µM)
MIC [12]: 12.5 µg/mL (≈ 122 µM)
MIC [13]: 12.5 µg/mL (≈ 122 µM)
MIC [14]: 25 µg/mL (≈ 245 µM)

Structure (SMILES): C[C@@H]1[C@H](O)[C@@H](C)/C=C/C=C/C=C/C=C/C=C/C=C/C=C/[C@H](O[C@@H]2O[C@H](C)[C@@H](O)[C@H](N)[C@@H]2O)C[C@@H]2O[C@](O)(C[C@@H](O)C[C@@H](O)[C@H](O)CC[C@@H](O)C[C@@H](O)CC(=O)O[C@H]1C)C[C@H](O)[C@H]2C(=O)O [AMPB, Amphotericin B]
MIC [20]: > 64 µg/mL
MIC [21]: > 64 µg/mL
MIC [22]: > 64 µg/mL
MIC [23]: > 64 µg/mL
MIC [24]: > 64 µg/mL
MIC [25]: > 64 µg/mL
MIC [17]: > 64 µg/mL
MIC [18]: > 64 µg/mL
MIC [26]: > 64 µg/mL
MIC [19]: > 64 µg/mL

Further lines, results first:

MIC [15]: > 64 µg/mL
MIC [16]: > 64 µg/mL
MIC [17]: > 16 µg/mL
MIC [18]: 0.5 µg/mL (≈ 1.51 µM)
MIC [19]: > 16 µg/mL
Structure (SMILES): O=C(O)c1cn(C2CC2)c2cc(N3CCNCC3)c(F)cc2c1=O [Cipro, Ciprofloxacin]

change of IC50 values with longer pre-incubation time [4]: no significant reduction in IC50 values
Structure (SMILES): CC(=O)OC[C@H](N)C(=O)O [O-acetyl-L- serine, O-acetyl-L-serine]

Source: article PMC3478562 (Biochemical pharmacology, 2011)
